ChEMBL document CHEMBL4145493, “Tetrahydroacridine derivatives with dichloronicotinic acid moiety as attractive, multipotent agents for Alzheimer's disease treatment” (Eur J Med Chem, 2018)

Tests used:
Cholinesterase = Cholinesterase (Equus caballus, UniProt P81908); assay: Inhibition of equine serum BuChE using acetylthiocholine iodide as substrate after 8 mins by Ellman's method
Acetylcholinesterase = Acetylcholinesterase (Electrophorus electricus, UniProt O42275); assay: Inhibition of electric eel AChE using acetylthiocholine iodide as substrate after 10 mins by Ellman's method
AChE (electric eel) = assay: Selectivity index, ratio of IC50 for human A549 cells to IC50 for electric eel AChE; assay type: toxicity; conditions: read-out: Ratio IC50
[1] = Cytotoxicity against human A549 cells assessed as cell viability at 2.3 uM after 48 hrs by MTT assay relative to control; assay type: cell-based; conditions: read-out: Activity
[2] = target: Amyloid-beta precursor protein (Homo sapiens) (UniProt P05067); assay: Inhibition of self-induced amyloid beta (1 to 42) (unknown origin) aggregation at 25 uM measured after 24 hrs by ThT fluorescence assay relative to control
[3] = Cytotoxicity against human A549 cells assessed as cell viability at 0.9 uM after 48 hrs by MTT assay relative to control; assay type: cell-based; conditions: read-out: Activity
[4] = target: Amyloid-beta precursor protein (Homo sapiens) (UniProt P05067); assay: Inhibition of self-induced amyloid beta (1 to 42) (unknown origin) aggregation at 10 uM measured after 24 hrs by ThT fluorescence assay relative to control
[5] = target: Amyloid-beta precursor protein (Homo sapiens) (UniProt P05067); assay: Inhibition of self-induced amyloid beta (1 to 42) (unknown origin) aggregation at 50 uM measured after 24 hrs by ThT fluorescence assay relative to control
Hyaluronidase = target: T1, Hyaluronidase (Bos taurus, UniProt Q8SQG8+Q5E985); assay: Inhibition of bovine testes hyaluronidase using hyaluronic acid as substrate preincubated for 10 mins in dark followed by incubation with substrate for 45 mins and subsequent addition of serum albumin measured after 10 mins by turbidimetric method; assay type: protein assay
T1 sequence (Q8SQG8 whole entry): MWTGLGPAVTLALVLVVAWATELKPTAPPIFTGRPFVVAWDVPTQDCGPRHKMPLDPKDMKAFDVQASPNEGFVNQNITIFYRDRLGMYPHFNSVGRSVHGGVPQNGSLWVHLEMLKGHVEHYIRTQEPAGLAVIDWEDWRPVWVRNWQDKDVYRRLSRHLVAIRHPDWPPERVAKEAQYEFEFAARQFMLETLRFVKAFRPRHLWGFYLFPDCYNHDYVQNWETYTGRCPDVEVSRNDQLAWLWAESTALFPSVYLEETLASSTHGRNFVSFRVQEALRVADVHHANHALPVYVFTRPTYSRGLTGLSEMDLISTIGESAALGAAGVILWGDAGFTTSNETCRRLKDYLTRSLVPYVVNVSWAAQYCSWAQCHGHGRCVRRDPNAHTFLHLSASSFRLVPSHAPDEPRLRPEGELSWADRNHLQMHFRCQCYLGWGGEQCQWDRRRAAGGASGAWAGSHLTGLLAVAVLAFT
T1 sequence (Q5E985 whole entry): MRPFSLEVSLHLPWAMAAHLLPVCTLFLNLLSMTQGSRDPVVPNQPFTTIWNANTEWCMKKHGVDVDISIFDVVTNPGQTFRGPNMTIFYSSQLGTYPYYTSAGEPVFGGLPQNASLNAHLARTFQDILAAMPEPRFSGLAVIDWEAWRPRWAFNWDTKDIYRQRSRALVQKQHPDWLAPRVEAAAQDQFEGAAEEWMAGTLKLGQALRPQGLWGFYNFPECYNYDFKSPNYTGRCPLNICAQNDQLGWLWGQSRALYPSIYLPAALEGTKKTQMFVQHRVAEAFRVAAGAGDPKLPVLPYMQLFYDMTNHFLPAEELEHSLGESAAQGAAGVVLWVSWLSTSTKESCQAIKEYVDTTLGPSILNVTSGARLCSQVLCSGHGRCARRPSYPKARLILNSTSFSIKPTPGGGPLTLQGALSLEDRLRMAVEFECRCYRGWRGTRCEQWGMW

A549 = assay: Cytotoxicity against human A549 cells assessed as cell viability after 48 hrs by MTT assay; assay type: cell-based; conditions: A549, 48 h
[6] = target: Amyloid-beta precursor protein (Homo sapiens) (UniProt P05067); assay: Inhibition of self-induced amyloid beta (1 to 42) (unknown origin) aggregation at 5 uM measured after 24 hrs by ThT fluorescence assay relative to control
BuChE (equine serum) = assay: Selectivity index, ratio of IC50 for human A549 cells to IC50 for equine serum BuChE; assay type: toxicity; conditions: read-out: Ratio IC50

Acetylcholinesterase, sequence (O42275 whole entry): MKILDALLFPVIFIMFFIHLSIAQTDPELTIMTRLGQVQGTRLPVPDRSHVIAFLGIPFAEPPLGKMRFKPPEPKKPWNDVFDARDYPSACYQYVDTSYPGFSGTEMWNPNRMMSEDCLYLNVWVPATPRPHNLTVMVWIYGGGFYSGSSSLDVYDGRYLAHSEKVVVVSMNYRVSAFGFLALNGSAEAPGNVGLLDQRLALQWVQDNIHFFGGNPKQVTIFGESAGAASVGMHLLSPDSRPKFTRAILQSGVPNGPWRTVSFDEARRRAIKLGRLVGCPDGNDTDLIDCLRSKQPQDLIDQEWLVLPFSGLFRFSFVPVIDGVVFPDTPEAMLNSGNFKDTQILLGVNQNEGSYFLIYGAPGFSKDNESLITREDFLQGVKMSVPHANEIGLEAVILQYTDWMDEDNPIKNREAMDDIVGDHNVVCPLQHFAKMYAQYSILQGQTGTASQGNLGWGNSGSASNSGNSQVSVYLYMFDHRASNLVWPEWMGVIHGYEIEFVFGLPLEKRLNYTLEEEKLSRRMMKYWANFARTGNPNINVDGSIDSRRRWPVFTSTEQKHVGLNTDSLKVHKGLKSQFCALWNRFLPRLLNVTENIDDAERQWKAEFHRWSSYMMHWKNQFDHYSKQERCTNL
Cholinesterase, sequence (P81908 whole entry): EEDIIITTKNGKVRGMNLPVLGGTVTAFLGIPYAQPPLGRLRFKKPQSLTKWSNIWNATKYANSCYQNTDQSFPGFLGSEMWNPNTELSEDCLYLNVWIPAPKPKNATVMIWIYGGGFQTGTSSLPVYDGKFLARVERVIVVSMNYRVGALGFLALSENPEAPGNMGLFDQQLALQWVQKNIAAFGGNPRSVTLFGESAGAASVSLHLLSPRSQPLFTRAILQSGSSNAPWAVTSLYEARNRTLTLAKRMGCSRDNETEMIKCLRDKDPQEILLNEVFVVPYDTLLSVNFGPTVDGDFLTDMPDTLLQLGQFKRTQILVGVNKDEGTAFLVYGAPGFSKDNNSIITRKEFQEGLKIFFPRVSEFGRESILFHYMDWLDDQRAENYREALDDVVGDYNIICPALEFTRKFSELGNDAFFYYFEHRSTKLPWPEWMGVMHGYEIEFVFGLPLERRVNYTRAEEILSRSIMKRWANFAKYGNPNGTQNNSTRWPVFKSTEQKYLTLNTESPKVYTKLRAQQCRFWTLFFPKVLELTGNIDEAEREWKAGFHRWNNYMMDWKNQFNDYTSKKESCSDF
Amyloid-beta precursor protein (Homo sapiens), sequence (P05067 whole entry): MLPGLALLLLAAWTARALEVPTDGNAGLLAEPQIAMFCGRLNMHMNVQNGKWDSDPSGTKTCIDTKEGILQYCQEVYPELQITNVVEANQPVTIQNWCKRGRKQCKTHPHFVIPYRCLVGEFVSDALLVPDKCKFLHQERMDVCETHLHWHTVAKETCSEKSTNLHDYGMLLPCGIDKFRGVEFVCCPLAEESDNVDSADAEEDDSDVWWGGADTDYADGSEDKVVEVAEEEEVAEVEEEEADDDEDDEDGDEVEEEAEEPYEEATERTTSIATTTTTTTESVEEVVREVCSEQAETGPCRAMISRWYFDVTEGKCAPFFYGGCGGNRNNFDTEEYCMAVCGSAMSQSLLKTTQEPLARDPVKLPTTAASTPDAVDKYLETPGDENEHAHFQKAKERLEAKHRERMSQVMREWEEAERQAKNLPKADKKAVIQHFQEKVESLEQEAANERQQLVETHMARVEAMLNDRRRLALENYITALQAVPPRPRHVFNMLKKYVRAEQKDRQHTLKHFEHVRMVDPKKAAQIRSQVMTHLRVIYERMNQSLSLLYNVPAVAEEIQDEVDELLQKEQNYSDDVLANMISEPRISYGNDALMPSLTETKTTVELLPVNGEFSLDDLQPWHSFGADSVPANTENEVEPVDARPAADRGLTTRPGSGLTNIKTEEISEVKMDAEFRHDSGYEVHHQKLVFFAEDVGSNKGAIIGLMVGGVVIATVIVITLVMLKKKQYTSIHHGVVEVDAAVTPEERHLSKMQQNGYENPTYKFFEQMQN

SMILES | IC50 (Cholinesterase) | IC50 (Acetylcholinesterase) | also measured
O=C(NCCCCNc1c2c(nc3ccccc13)CCCC2)c1cnc(Cl)c(Cl)c1 | 0.0414 µM | 0.00165 µM | 
O=C(NCCNc1c2c(nc3ccccc13)CCCC2)c1cnc(Cl)c(Cl)c1 | 0.726 µM | 0.0167 µM | 
O=C(NCCCCCCCCNc1c2c(nc3ccccc13)CCCC2)c1cnc(Cl)c(Cl)c1 | 0.0107 µM | 0.0103 µM | 
Cl.O=C(NCCCNc1c2c(nc3ccccc13)CCCC2)c1cnc(Cl)c(Cl)c1 | 0.16 µM | 0.00102 µM | selectivity ratio (AChE (electric eel)): 1960; viability at 48 h, 2.3 µM [1]: 46%; inhibition [2]: 31.1%; viability at 48 h, 0.9 µM [3]: 82.3%; inhibition [4]: 26.6%; inhibition [5]: 46.6%; IC50 (Hyaluronidase): 465.75 µM; IC50 (A549): 2 µM; inhibition [6]: 19.4%; selectivity ratio (BuChE (equine serum)): 13
O=C(NCCCCCNc1c2c(nc3ccccc13)CCCC2)c1cnc(Cl)c(Cl)c1 | 0.0135 µM | 0.0029 µM | 
O=C(NCCCCCCCCCNc1c2c(nc3ccccc13)CCCC2)c1cnc(Cl)c(Cl)c1 | 0.00333 µM | 0.00312 µM | 
O=C(NCCCCCCCNc1c2c(nc3ccccc13)CCCC2)c1cnc(Cl)c(Cl)c1 | 0.0114 µM | 0.0123 µM | 
O=C(NCCCCCCNc1c2c(nc3ccccc13)CCCC2)c1cnc(Cl)c(Cl)c1 | 0.0129 µM | 0.0042 µM | 
